# From patent US20100234238A1, “METHOD FOR PROFILING KINASE INHIBITORS” (Janssen Pharmaceutica N V, priority 2006, published 2010)
# Tested on: tyrosine kinase activity in lysates prepared from cell lines
# Experiment: PAMCHIP96 tyrosine peptide array profiling of lysates of 27 cell lines in absence or presence of MTKI
# Type: biochemical
# Settings: 5 μM
# Source text: PAMGENE technology using the tyrosine peptide PAMCHIP96 allows the kinetic detection of the phosphorylation of 144 tyrosine peptides spotted onto a 3-dimensional porous well of a 96-well plate (www.pamgene.com). This technology can be used to measure the activity of purified kinases and the effects of kinase inhibitors thereon. Phosphotyrosine peptides are detected using a mix of fluorescently labeled anti-phosphotyrosine antibodies. Phosphorylation of peptides can be followed in real time due to the possibility of removing the reaction mix for a few seconds during the assay by a pumping mechanism to allow CCD camera detection of phosphopeptides bound to the fluorescent antibody. These consecutive datapoints (quantified spot images) generate a kinetic curve for each individual peptide, and allow for the calculation of initial velocities and endpoints associated with each individual peptide.
# Cells cultured in appropriate medium in T175 flasks, treated with compound if necessary, are harvested at 70-90% confluency.
# Media is removed, cells are washed with 10 ml ice cold PBS containing 0.1 mM NaVO4 and lysed in 1 ml of M-PER buffer (PIERCE) containing phosphatase and protease inhibitors (HALT, PIERCE). Cells are collected by scraping, and centrifuged for 10 minutes at 12 000×g. Supernatant lysates are filtered through a 0.2 micrometer filter (Anotop 0.2 μm anopore filter; Whatmann). Lysates are flash frozen in liquid nitrogen and stored at −80C.
# Just prior to the PAMCHIP experiment, total protein content is quantitated in the lysates and lysates are diluted to 1 mg/ml in a total volume of 200 μl, with M-PER phosphatase and protease inhibitors (HALT, PIERCE). 10 μg of total lysate (corresponding to 10 μl) will be used per well on the PAMCHIP96.
# To all 200 μl lysates 10 units of benzonase (Novagen) is added and lysates are further incubated for 30 min on ice and next centrifuged for 10 minutes at 12 000×g. The supernatant is then 1:1 diluted with compound or DMSO diluted to the appropriate concentration in water, and lysates are further incubated exactly 60 min on ice. Meanwhile, a PAMCHIP96 tyrosine peptide chip (PAMGENE) is blocked with 2% BSA (filtered through a 0.2 μm anopore filter; Whatmann) using the standard setting of a PAMSTATION96 (PAMGENE).
# The composition of the kinase buffer is as follows: 1×ABL buffer (NEB), 0.5 mg/ml BSA (from 10 mg/ml NEB stock), 100 μM ATP (dissolved and diluted in 1×ABL buffer), 5 μg/ml PY20-FITC (ExAlpha Biologicals, azide-free preparation). A twofold concentrated kinase buffer is prepared chilled on ice, DMSO or compound is added as appropriate, and the solution is added 1:1 to the (compound treated) ice cold lysates, and immediately applied to a tyrosine peptide PAMCHIP96. The assay is run on a PAMSTATION96 according to standard procedures: after loading of the plate, solution is pumped once onto the wells, a first exposure is read (150 mSec) and then a kinetic reading program (reading every 5 min for 150 mSec) is run for 60 min. Lysates are run in 6 technical replicates for each condition; replicates are always applied horizontally next to each other to avoid vertical strip effects of the chip.
# The data (spot images) are further quantified and linked to the peptide identities using EVOLVE PAMGRID software (PAMGENE). The quantified data are then fit to a curve using CurveFitHT software (PAMGENE) using the Vinip2 curve fitting algorithm, applied on the first 30 min of the assay; the initial velocity is derived at the first kinetic time point read. All subsequent data analyses were done on initial velocities (Vini) using the software packages Omniviz and R (Ihaka, R. and Gentlemen, R. (1996) R: a language for data analysis and graphics. J. Comput. Graph. Stat., 5, 299-314).
# After replacing the Vini's lower than 0.1 by 0.1, all Vini's were log 2-transformed to approach normality.
compound,measurement,setting,value
"COc1cc2ncnc3c2cc1OCCCCCN(C)Cc1ccc(Br)cc1N3 [MTKI, 4,6-ethanediylidenepyrimido[4,5-b][6,1,12]benzoxadiazacyclopentadecine, 17-bromo-8,9,10,11,12,13,14,19-octahydro-20-methoxy-13-methyl-]",ratio of initial velocity of peptide phosphorylation,"H3255 lysate, PECA1_706_718_Y713",0.68
same,ratio of initial velocity of peptide phosphorylation,"H3255 lysate, PGFRB_768_780_Y771/Y775/Y778",0.12
same,ratio of initial velocity of peptide phosphorylation,"H3255 lysate, PLCG1_764_776_Y771",0.97
same,ratio of initial velocity of peptide phosphorylation,"H3255 lysate, PRRX2_202_214_Y214",0.67
same,ratio of initial velocity of peptide phosphorylation,"H3255 lysate, RASA1_453_465_Y460",0.65
same,ratio of initial velocity of peptide phosphorylation,"H3255 lysate, STAT2_683_695_Y690",0.72
same,ratio of initial velocity of peptide phosphorylation,"H3255 lysate, SYN1_2_14_S9",0.70
same,ratio of initial velocity of peptide phosphorylation,"H3255 lysate, TYRO3_679_691_Y686",0.47
same,ratio of initial velocity of peptide phosphorylation,"NCI-N87 lysate, CDK7_157_169_S164",0.82
same,ratio of initial velocity of peptide phosphorylation,"NCI-N87 lysate, CREB1_122_134_Y134/S133",0.82
same,ratio of initial velocity of peptide phosphorylation,"NCI-N87 lysate, DDR2_733_745_Y740",0.95
same,ratio of initial velocity of peptide phosphorylation,"NCI-N87 lysate, ENOG_37_49_Y43",0.91
same,ratio of initial velocity of peptide phosphorylation,"NCI-N87 lysate, MK10_216_228_T221/Y223",0.73
same,ratio of initial velocity of peptide phosphorylation,"NCI-N87 lysate, NCF1_313_325_S315/S320",0.89
same,ratio of initial velocity of peptide phosphorylation,"NCI-N87 lysate, NPT2_501_513_T508",0.88
same,ratio of initial velocity of peptide phosphorylation,"NCI-N87 lysate, PECA1_706_718_Y713",0.82
same,ratio of initial velocity of peptide phosphorylation,"NCI-N87 lysate, PGFRB_768_780_Y771/Y775/Y778",0.32
same,ratio of initial velocity of peptide phosphorylation,"NCI-N87 lysate, PLCG1_764_776_Y771",0.78
same,ratio of initial velocity of peptide phosphorylation,"NCI-N87 lysate, PRRX2_202_214_Y214",0.82
same,ratio of initial velocity of peptide phosphorylation,"NCI-N87 lysate, RASA1_453_465_Y460",0.59
same,ratio of initial velocity of peptide phosphorylation,"NCI-N87 lysate, STAT2_683_695_Y690",0.83
same,ratio of initial velocity of peptide phosphorylation,"NCI-N87 lysate, SYN1_2_14_S9",0.75
same,ratio of initial velocity of peptide phosphorylation,"NCI-N87 lysate, TYRO3_679_691_Y686",0.85
same,ratio of initial velocity of peptide phosphorylation,"SKBR3 lysate, CDK7_157_169_S164",0.97
same,ratio of initial velocity of peptide phosphorylation,"SKBR3 lysate, CREB1_122_134_Y134/S133",0.99
same,ratio of initial velocity of peptide phosphorylation,"SKBR3 lysate, DDR2_733_745_Y740",0.93
same,ratio of initial velocity of peptide phosphorylation,"SKBR3 lysate, MK10_216_228_T221/Y223",0.68
same,ratio of initial velocity of peptide phosphorylation,"SKBR3 lysate, NCF1_313_325_S315/S320",0.94
same,ratio of initial velocity of peptide phosphorylation,"SKBR3 lysate, NPT2_501_513_T508",0.77
same,ratio of initial velocity of peptide phosphorylation,"SKBR3 lysate, PECA1_706_718_Y713",0.68
same,ratio of initial velocity of peptide phosphorylation,"SKBR3 lysate, PLCG1_764_776_Y771",0.75
same,ratio of initial velocity of peptide phosphorylation,"SKBR3 lysate, PRRX2_202_214_Y214",0.75
same,ratio of initial velocity of peptide phosphorylation,"SKBR3 lysate, RASA1_453_465_Y460",0.88
same,ratio of initial velocity of peptide phosphorylation,"SKBR3 lysate, STAT2_683_695_Y690",0.81
same,ratio of initial velocity of peptide phosphorylation,"SKBR3 lysate, SYN1_2_14_S9",1.03
same,ratio of initial velocity of peptide phosphorylation,"SKBR3 lysate, TYRO3_679_691_Y686",0.90
same,ratio of initial velocity of peptide phosphorylation,"SNU484 lysate, CDK7_157_169_S164",0.67
same,ratio of initial velocity of peptide phosphorylation,"SNU484 lysate, CREB1_122_134_Y134/S133",0.70
same,ratio of initial velocity of peptide phosphorylation,"SNU484 lysate, DDR2_733_745_Y740",0.75
same,ratio of initial velocity of peptide phosphorylation,"SNU484 lysate, ENOG_37_49_Y43",0.68
same,ratio of initial velocity of peptide phosphorylation,"SNU484 lysate, MK10_216_228_T221/Y223",0.72
same,ratio of initial velocity of peptide phosphorylation,"SNU484 lysate, NCF1_313_325_S315/S320",0.80
same,ratio of initial velocity of peptide phosphorylation,"SNU484 lysate, NPT2_501_513_T508",0.85
same,ratio of initial velocity of peptide phosphorylation,"SNU484 lysate, PECA1_706_718_Y713",0.64
same,ratio of initial velocity of peptide phosphorylation,"SNU484 lysate, PLCG1_764_776_Y771",0.70
same,ratio of initial velocity of peptide phosphorylation,"SNU484 lysate, PRRX2_202_214_Y214",0.67
same,ratio of initial velocity of peptide phosphorylation,"SNU484 lysate, RASA1_453_465_Y460",0.58
same,ratio of initial velocity of peptide phosphorylation,"SNU484 lysate, STAT2_683_695_Y690",0.73
same,ratio of initial velocity of peptide phosphorylation,"SNU484 lysate, SYN1_2_14_S9",0.67
same,ratio of initial velocity of peptide phosphorylation,"SNU484 lysate, TYRO3_679_691_Y686",0.85
